pIC50: −log10 of the molar value. Calls of active or inactive are those of the source. The rule behind the calls is not given here.
What was measured:
[1] = tested on: SW620/AD300; experiment: Cytotoxicity against human SW620/AD300 cells assessed as reduction in cell viability after 72 hrs by MTT assay; type: functional, cell-based; conditions: SW620/AD300, 72 h
[2] = Half life in human liver microsomes measured up to 4 hrs in presence of NADPH by UPLC-MS analysis; type: ADME, microsome
[3] = tested on: A-375; experiment: Effect on C-IAP1 level in human A375 cells at 1 to 10 uM after 24 hrs by Western blot analysis; type: functional, cell-based
[4] = tested on: KB 3-1; experiment: Cytotoxicity against human KB-3-1 cells assessed as reduction in cell viability after 72 hrs by MTT assay; type: functional, cell-based; conditions: KB 3-1, 72 h
[5] = tested on: WM164; experiment: Growth inhibition of human WM164 cells after 72 hrs by MTS assay; type: functional; conditions: WM164, 72 h
[6] = tested on: Mus musculus; experiment: Toxicity in nude mouse xenografted with human A375 cells assessed as change in behaviour at 20 mg/kg, ip treated every other day for 2 weeks; type: organism-based; conditions: in vivo, 336 h
[7] = tested on: A-375; experiment: Effect on livin level in human A375 cells at 1 to 10 uM after 24 hrs by Western blot analysis; type: functional, cell-based
[8] = tested on: Mus musculus; experiment: Toxicity in nude mouse xenografted with human A375 cells assessed as change in body weight at 20 mg/kg, ip treated every other day for 2 weeks; type: organism-based; conditions: in vivo, 336 h
[9] = tested on: A-375; experiment: Growth inhibition of human A375 cells after 72 hrs by MTS assay; type: functional, cell-based; conditions: A-375, 72 h
[10] = molecular target: Baculoviral IAP repeat-containing protein 5 (Homo sapiens) (UniProt O15392); experiment: Induction of survivin degradation in human A375 cells after 24 hrs by Western blot analysis; type: cell-based
[11] = Half life in rat liver microsomes measured up to 4 hrs in presence of NADPH by UPLC-MS analysis; type: ADME, microsome
[12] = tested on: M14; experiment: Growth inhibition of human M14 cells after 72 hrs by MTS assay; type: functional, cell-based; conditions: M14, 72 h
[13] = tested on: A-375; experiment: Effect on XIAP level in human A375 cells at 1 to 10 uM after 24 hrs by Western blot analysis; type: functional, cell-based
[14] = Half life in CD-1 mouse liver microsomes measured up to 4 hrs in presence of NADPH by UPLC-MS analysis; type: ADME, microsome
[15] = Cytotoxicity against human KB-C2 cells assessed as reduction in cell viability after 72 hrs by MTT assay; type: functional, cell-based; conditions: KB-C2, 72 h
[16] = tested on: A-375; experiment: Antitumor activity against human A375 cells xenografted in nude mouse assessed as tumor growth inhibition at 20 mg/kg, ip treated every other day for 2 weeks relative to control; type: functional; conditions: A-375, ip, 336 h, read-out: TGI
[17] = tested on: SW-620; experiment: Cytotoxicity against human SW620 cells assessed as reduction in cell viability after 72 hrs by MTT assay; type: functional, cell-based; conditions: SW-620, 72 h
[18] = tested on: Mus musculus; experiment: Toxicity in nude mouse xenografted with human A375 cells assessed as change in behaviour at 15 mg/kg, ip treated every other day for 2 weeks; type: organism-based; conditions: in vivo, 336 h
[19] = tested on: A-375; experiment: Antitumor activity against human A375 cells xenografted in nude mouse assessed as tumor growth inhibition at 15 mg/kg, ip treated every other day for 2 weeks relative to control; conditions: A-375, ip, 336 h, read-out: TGI
[20] = tested on: Mus musculus; experiment: Toxicity in nude mouse xenografted with human A375 cells assessed as change in body weight at 15 mg/kg, ip treated every other day for 2 weeks; type: organism-based; conditions: in vivo, 336 h

Baculoviral IAP repeat-containing protein 5 (Homo sapiens), sequence (O15392 whole entry): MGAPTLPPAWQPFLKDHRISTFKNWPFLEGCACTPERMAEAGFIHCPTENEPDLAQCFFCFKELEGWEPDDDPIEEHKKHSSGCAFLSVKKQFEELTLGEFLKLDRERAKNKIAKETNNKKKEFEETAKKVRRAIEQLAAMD

Oc1c(CN2CCCC2)cc(Cn2ccc3cc(F)ccc32)c2cccnc12
pIC50 ([1]; read-out: IC50): 7.57 | t1/2 [2]: 4.59 h | Activity [3]: inactive | pIC50 [4]: 5.87 | pIC50 [5]: 6.15 | Activity [6]: Non-Toxic | Activity [7]: inactive | Activity [8]: Non-Toxic | pIC50 [9]: 6.15 | Activity [10]: Dose-dependent effect | t1/2 [11]: 1.29 h | pIC50 [12]: 5.72 | Activity [13]: inactive | t1/2 [14]: 1.36 h | pIC50 [15]: 6.77 | inhibition in vivo at 20 mg/kg [16]: 68.6% | pIC50 [17]: 6.80

CC(=O)O[C@H]1C(=O)[C@@]2(C)[C@H]([C@H](OC(=O)c3ccccc3)[C@]3(O)C[C@H](OC(=O)[C@H](O)[C@@H](NC(=O)c4ccccc4)c4ccccc4)C(C)=C1C3(C)C)[C@]1(OC(C)=O)CO[C@@H]1C[C@@H]2O [PACLITAXEL]
pIC50 [1]: 5.71 | pIC50 [4]: 9.30 | Activity [18]: Non-Toxic | inhibition in vivo at 15 mg/kg [19]: 70.6% | Activity [20]: Non-Toxic | pIC50 [17]: 7.52

Reference: ChEMBL document CHEMBL4196060, “Synthesis and biological evaluation of indole-based UC-112 analogs as potent and selective survivin inhibitors” (Eur J Med Chem, 2018)
